Like-named read-outs stand apart in the source and are kept apart here.
Key:
E. coli apo-FrdA = target: T1, E. coli apo-FrdA (Escherichia coli, UniProt P00363); format: biochemical; details: ligand 20 mM, FAD 100 μM, 1 h, 30 °C; for Covalent FAD attachment to apo-FrdA, SdhE-dependent: +SdhE 10.4 μM
T1 construct: His6 (N); made in house; host or cells: E. coli RP437 ΔsdhE (RP-E), plasmid pCA24N-FrdA
Experimental: (§1) Unless specified, the reaction was performed in 50 mM potassium phosphate (pH 7.0) at 30 °C for 1 h. […] The reaction was started after addition of the appropriate flavinylation-promoting ligand at the as-indicated concentration. At different time points, the samples were mixed with 4× SDS loading buffer (Bio-Rad), and the sample loaded onto an SDS-PAGE gel (Bio-Rad; Any KdA). Following protein separation, the gel was incubated in 10% acetic acid/20% ethanol for 5 min. Upon illumination with UV light, complex II flavinylated flavoprotein is visible because of the fluorescence of the covalently bound flavin. The in-gel fluorescence of covalently attached FAD was detected using a Safe Imager 2.0 blue-light transilluminator (Thermo Fisher Scientific). The gel was then rinsed with water for 5 min and stained with Instant Blue stain (Expedeon). ImageJ (National Institutes of Health) software was used for quantification of covalently bound FAD levels and relative protein ratios. The isolated holo-SdhA/FrdA or SDHA–SDHAF2 complex were used as 100% covalent flavinylated controls. […] To do that, upon addition of fumarate, the sample (200 μl) was quickly mixed and filled into an automatic pipette. Each sample (15 μl) was then injected into a vial containing 5 μl of 4× SDS loading gel. This allowed collection of time points that are at 10 to 15 s intervals.

E. coli apo-SdhA = target: T2, E. coli apo-SdhA (Escherichia coli, UniProt P0AC41); experiment: biochemical; format: biochemical; details: for Covalent FAD attachment to apo-SdhA, SdhE-dependent: +SdhE 10.4 μM; for Covalent FAD attachment to apo-SdhA, SdhE-dependent / Covalent FAD attachment to apo-SdhA, SdhE-independent: ligand 20 mM
T2 construct: His6 (N); made in house; host or cells: E. coli RP437 ΔsdhE (RP-E), plasmid pCA24N-SdhA
Experimental: as §1

apo-SdhA [1] = target: T3, apo-SdhA (Escherichia coli, UniProt P0AC41); format: biochemical; set-up: His6 (N); made in house; host or cells: apo-SdhA: E. coli RP437 ΔsdhE (pCA24N-SdhA); details: 30 min at 37 °C; FAD 100 μM, SdhE 10.4 μM
Target sequence in this assay (P64559 whole entry): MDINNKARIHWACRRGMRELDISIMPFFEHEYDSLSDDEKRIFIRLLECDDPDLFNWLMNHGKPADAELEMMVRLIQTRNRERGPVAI
Target sequence in this assay (P0AC41 whole entry): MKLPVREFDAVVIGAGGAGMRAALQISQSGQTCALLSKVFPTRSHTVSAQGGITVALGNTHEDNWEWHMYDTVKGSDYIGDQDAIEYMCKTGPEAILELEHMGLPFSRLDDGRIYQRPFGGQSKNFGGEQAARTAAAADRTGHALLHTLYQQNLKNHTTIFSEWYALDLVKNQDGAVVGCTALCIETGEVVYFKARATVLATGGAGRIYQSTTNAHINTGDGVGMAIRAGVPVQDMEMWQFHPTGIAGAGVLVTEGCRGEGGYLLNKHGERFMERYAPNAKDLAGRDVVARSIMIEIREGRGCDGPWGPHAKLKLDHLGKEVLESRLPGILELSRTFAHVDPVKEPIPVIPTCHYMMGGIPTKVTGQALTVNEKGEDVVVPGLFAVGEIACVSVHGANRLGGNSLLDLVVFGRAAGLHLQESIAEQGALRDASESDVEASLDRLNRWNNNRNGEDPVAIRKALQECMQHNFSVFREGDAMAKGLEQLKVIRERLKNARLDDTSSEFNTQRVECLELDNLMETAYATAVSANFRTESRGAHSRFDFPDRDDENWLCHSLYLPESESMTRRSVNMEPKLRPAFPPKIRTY
Experimental: Apo-SdhA (2.8 μM) or apo-SDHA (4.3 μM) in 40 mM Hepes (pH 7.5) was incubated at 37 °C as follows: (1) no addition; (2) FAD (100 μM); (3) the assembly factors SdhE (10.4 μM) or SDHAF2 (8.4 μM); and (4) FAD (100 μM) plus appropriate assembly factors at the aforementioned concentrations. The incubation time was 15 min for SDHA and 30 min for SdhA. Corresponding control samples (with no additions) were held at 4 °C for the same time. After the incubation, the samples were transferred to 4 °C, and to all samples, including the control, either FAD and/or the assembly factor was added so that each sample contains 100 μM FAD and the appropriate assembly factor. Then 0.5 mM fumarate is added to each sample to initiate the flavinylation reaction. After 30 min incubation at 30 °C, 4× SDS sample buffer was added, and then in-gel fluorescence was determined as described previously.

[2] = set-up: method as in PMID 4752947, PMID 6263261, PMID 15884941; details: free FAD in solution; cited from earlier work
human apo-SDHA [3] = target: T4, human apo-SDHA (Homo sapiens, UniProt P31040); experiment: In vitro covalent flavinylation of human apo-SDHA; format: biochemical
T4 construct: His6 (N); made in house; host or cells: E. coli BL21(DE3), plasmid pQE-hSDHA
Experimental: as §1

apo-SdhA [4] = target: T3, apo-SdhA; experiment: Determination of Kd for FAD by ultrafiltration; format: binding; set-up: His6 (N); made in house; host or cells: E. coli RP437 ΔsdhE (RP-E), plasmid pCA24N-SdhA; details: 50 mM Hepes pH 7.0, 21 °C
Experimental: The method is adapted from Mortarino et al. ([36]). […] The exact volume and the concentration of free flavin (ε^450 = 11.3 mM^−1 cm^−1) in the filtrate was measured, and it is assumed the free flavin (FAD^free) concentrations are the same in the filtrate and concentrated fractions. The total FAD in the concentrated fraction was calculated, and the excess over FAD^free corresponded to SdhA–noncovalent FAD. The Kd = [FAD^free][apo-SdhA]/[SdhA–FAD] was calculated from the amount of apo-SdhA determined by total protein concentration. The data are expressed as mean ± SD of four to five independent measurements.
Target sequence in this assay (P0AC41 whole entry): as above

apo-SdhA [5] = target: T3, apo-SdhA; experiment: Hydrogen peroxide formation upon covalent flavinylation of SdhA (Amplex UltraRed); format: biochemical; set-up: His6 (N); made in house; host or cells: apo-SdhA: E. coli RP437 ΔsdhE (pCA24N-SdhA); details: apo-SdhA 2.8 μM, FAD 2.5 μM, SdhE 4.8 μM
Experimental: Upon covalent attachment, the flavin in SdhA became reduced and can be reoxidized by oxygen with formation of hydrogen peroxide. Amplex UltraRed was used to monitor the hydrogen peroxide formed. […] The reaction was started by addition of either 10 μM or 10 mM fumarate and hydrogen peroxide monitored by following the oxidation of Amplex UltraRed (567 nm) using an Agilent 8453 spectrophotometer.
Target sequence in this assay (P64559 whole entry): as the sequence (P64559 whole entry) above
Target sequence in this assay (P0AC41 whole entry): as the sequence (P0AC41 whole entry) above

[6] = tested on: Sulfolobus tokodaii succinate dehydrogenase; details: no sdhE gene; cited from earlier work
[7] = tested on: Thermus thermophilus succinate dehydrogenase; details: no sdhE gene; cited from earlier work
apo-SdhA [8] = target: T3, apo-SdhA; experiment: Reduction/oxidation of FAD during SdhE-dependent flavinylation (absorbance at 452 nm); format: biochemical; set-up: His6 (N); made in house; host or cells: apo-SdhA: E. coli RP437 ΔsdhE (pCA24N-SdhA); details: 10 mM fumarate; 25 μM apo-SdhA, 20 μM FAD, 40 μM SdhE, 30 °C
Experimental: Spectral measurements and kinetics were performed by using an Agilent […] UV–visible spectrophotometer. For kinetic measurements, whole spectra (1 nm increments) were collected during the reaction at 1 to 5 s intervals.
Target sequence in this assay (P64559 whole entry): as the sequence (P64559 whole entry) above
Target sequence in this assay (P0AC41 whole entry): as the sequence (P0AC41 whole entry) above

human apo-SDHA [9] = target: T4, human apo-SDHA; set-up: method as in PMID 32887801; details: cited from earlier work
holo-SdhA–SdhE = target: holo-SdhA–SdhE; set-up: method as in PMID 29348404; details: read-out: Kd for fumarate, holo-SdhA–SdhE complex; holo-SdhA with covalent FAD; cited from earlier work
[10] = +SdhE, 50 mM potassium phosphate pH 7.0, 0.1 mM FAD, 30 °C
[11] = read-out: k, ligand concentration for half-maximal flavinylation after 1 h incubation, +SdhE, 50 mM potassium phosphate pH 7.0, 0.1 mM FAD, 30 °C, 1 h

T1 sequence (P00363 whole entry): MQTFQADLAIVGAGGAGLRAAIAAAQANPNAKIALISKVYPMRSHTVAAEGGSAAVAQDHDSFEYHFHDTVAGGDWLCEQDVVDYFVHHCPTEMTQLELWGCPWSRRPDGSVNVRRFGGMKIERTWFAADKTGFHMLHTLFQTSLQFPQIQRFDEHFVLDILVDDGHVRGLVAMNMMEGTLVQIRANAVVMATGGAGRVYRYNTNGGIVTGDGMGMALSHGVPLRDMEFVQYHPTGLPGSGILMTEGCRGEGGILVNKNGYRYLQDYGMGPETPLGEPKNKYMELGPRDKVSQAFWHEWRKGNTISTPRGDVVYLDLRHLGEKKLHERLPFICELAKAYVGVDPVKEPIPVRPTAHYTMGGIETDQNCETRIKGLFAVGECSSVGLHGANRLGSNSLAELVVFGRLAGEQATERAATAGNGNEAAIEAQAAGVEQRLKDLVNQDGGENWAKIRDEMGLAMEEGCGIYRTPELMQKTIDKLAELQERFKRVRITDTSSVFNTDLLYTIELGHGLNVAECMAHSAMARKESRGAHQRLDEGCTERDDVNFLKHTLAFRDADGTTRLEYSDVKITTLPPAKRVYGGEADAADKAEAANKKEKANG
T4 sequence (P31040 43-664): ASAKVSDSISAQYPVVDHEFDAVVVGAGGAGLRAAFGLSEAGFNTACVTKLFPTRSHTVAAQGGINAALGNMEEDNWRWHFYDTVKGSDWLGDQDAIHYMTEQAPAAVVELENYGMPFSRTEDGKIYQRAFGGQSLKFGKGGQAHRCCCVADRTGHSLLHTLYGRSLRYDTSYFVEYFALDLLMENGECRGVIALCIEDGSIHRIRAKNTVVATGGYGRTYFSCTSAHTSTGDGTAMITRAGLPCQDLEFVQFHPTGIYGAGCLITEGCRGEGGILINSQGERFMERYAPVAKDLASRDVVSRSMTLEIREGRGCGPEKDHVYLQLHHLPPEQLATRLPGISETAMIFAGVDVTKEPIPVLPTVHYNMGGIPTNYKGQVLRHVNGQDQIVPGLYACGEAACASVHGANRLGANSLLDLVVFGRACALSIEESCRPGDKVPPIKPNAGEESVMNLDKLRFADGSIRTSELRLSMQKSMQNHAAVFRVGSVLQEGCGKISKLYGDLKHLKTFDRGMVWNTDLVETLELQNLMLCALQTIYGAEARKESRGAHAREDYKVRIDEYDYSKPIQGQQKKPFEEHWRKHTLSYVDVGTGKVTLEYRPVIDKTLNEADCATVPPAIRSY
T2 sequence (P0AC41 whole entry): as the sequence (P0AC41 whole entry) above

SMILES | Covalent FAD attachment to apo-FrdA, SdhE-dependent (E. coli apo-FrdA) | Covalent FAD attachment to apo-FrdA, SdhE-independent (E. coli apo-FrdA) | Covalent FAD attachment to apo-SdhA, SdhE-dependent (E. coli apo-SdhA; FAD 100 μM, 1 h, 30 °C) | K, apparent first-order rate constant of covalent flavinylation, +SdhE (E. coli apo-SdhA; [10]) | Initiation of flavinylation in Thermus thermophilus [7] | Covalent FAD attachment to apo-SdhA, SdhE-independent (E. coli apo-SdhA; −SdhE, FAD 100 μM, 1 h, 30 °C) | further results
N[C@@H](CC(=O)O)C(=O)O [Aspartate, L-aspartate] | high levels | partially effective | high levels | 0.1 min⁻¹ |  |  | EC50 (E. coli apo-SdhA): 26 µM
Cc1cc2nc3c(=O)[nH]c(=O)nc-3n(C[C@H](O)[C@H](O)[C@H](O)COP(=O)(O)OP(=O)(O)OC[C@H]3O[C@@H](n4cnc5c(N)ncnc54)[C@H](O)[C@@H]3O)c2cc1C [FAD] |  |  |  |  |  |  | Protection of apo-SdhA against thermal inactivation of the flavinylation reaction (apo-SdhA [1]): does not afford enhanced stability and protection; Redox potential Em of free FAD [2]: −219 mV; Increase in FAD concentration required for 50% flavinylation without SDHAF2 versus SDHAF2-dependent reaction (human apo-SDHA [3]; fumarate-only SDHA flavinylation): fivefold; Kd (apo-SdhA [4]; read-out: Estimated apparent Kd for FAD, apo-SdhA in the presence of SdhE, +SdhE 12.5 μM): 1.3 ± 0.5 µM; Kd (apo-SdhA [4]; without SdhE, read-out: Estimated apparent Kd for FAD, apo-SdhA alone): 14.4 ± 1.7 µM; FAD requirement for maximum flavinylation of SdhA (E. coli apo-SdhA; +SdhE, fumarate 10 mM, apo-SdhA 6 μM, 1 h, 30 °C): stoichiometric ratios of FAD to apo-SdhA; EC50 (E. coli apo-SdhA; −SdhE, fumarate 10 mM, apo-SdhA 6 μM, 1 h, 30 °C, read-out: FAD concentration for half-maximal flavinylation of SdhA): ~20 µM
O=C(O)/C=C/C(=O)O [Fumarate] | high levels | complete | high levels | 1.7 min⁻¹ | quite proficient | complete | Hydrogen peroxide formation on induction of flavinylation (apo-SdhA [5]; 10 μM fumarate): significant increase in hydrogen peroxide; Hydrogen peroxide formation on induction of flavinylation (apo-SdhA [5]; 10 mM fumarate): very low release of hydrogen peroxide; Saturation level of SDHAF2-independent flavinylation relative to SDHAF2-dependent flavinylation (human apo-SDHA [3]; −SDHAF2, 60 mM fumarate, 100 μM FAD, time course): ~70%; k, rate of covalent flavinylation of SDHA, − SDHAF2 (human apo-SDHA [3]; −SDHAF2, 60 mM fumarate, 100 μM FAD, assuming 70% of protein capable of flavinylation): 0.032 min⁻¹; EC50 (human apo-SDHA [3]; −SDHAF2, fumarate concentration for 50% flavinylation, read-out: K (fum), − SDHAF2): 12000 µM; SDHAF2-independent flavinylation of SDHA relative to flavinylation in the presence of SDHAF2 (human apo-SDHA [3]; −SDHAF2, ligand 20 mM, FAD 100 μM, 1 h, 37 °C): ~40%; Initiation of flavinylation in Sulfolobus tokodaii [6]: proficient flavinylation; Fumarate concentration giving complete flavinylation of apo-SdhA (E. coli apo-SdhA; +SdhE, apo-SdhA 6 μM, FAD 100 μM, 1 h, 30 °C): ~1 µM; EC50 (E. coli apo-SdhA; [11]): < 1 µM; k, apparent first-order rate constant of covalent flavinylation, −SdhE (E. coli apo-SdhA; −SdhE, 50 mM potassium phosphate pH 7.0, 0.1 mM FAD, 30 °C): 0.1 min⁻¹; k, apparent first-order rate constant of covalent flavinylation, −SdhE (E. coli apo-SdhA; −SdhE, 50 mM potassium phosphate pH 7.0, 0.1 mM FAD, 30 °C, listed as fumarate): 0.095 min⁻¹; k app, fast phase (reduction of FAD) (apo-SdhA [8]): ~7 min⁻¹; k app, second slower phase (reoxidation of reduced flavin) (apo-SdhA [8]): ~0.1 min⁻¹; EC50 (human apo-SDHA [9]; +SDHAF2, read-out: Concentration of fumarate needed to achieve 50% flavinylation, with SDHAF2): 16 µM; k, rate of covalent flavinylation of SDHA, + SDHAF2 (human apo-SDHA [9]): 0.15 min⁻¹; Kd (holo-SdhA–SdhE): 64 µM
O=C(O)CC(O)C(=O)O (centres unmarked) [Malate, malate] | high levels |  | high levels | 0.3 min⁻¹ | quite proficient | partially effective | EC50 (E. coli apo-SdhA): 10 µM
CC(=O)C(=O)O [Pyruvate] | able to induce |  | able to induce |  |  |  | 
O=C(O)CCC(=O)O [Succinate, succinate] | high levels |  | high levels | 0.7 min⁻¹ | quite proficient | partially effective | Initiation of flavinylation in Sulfolobus tokodaii [6]: proficient flavinylation; EC50 (E. coli apo-SdhA; [11]): 1 µM
CC(=O)O [acetate] | ~30% |  | ~30% |  |  |  | 
O=C(O)CC(O)(CC(=O)O)C(=O)O [citrate] | able to induce |  | able to induce |  |  |  | 
O=C(O)CC(=O)O [malonate] | ~30% |  | ~30% |  |  |  | 
O=C(O)CC(=O)C(=O)O [oxaloacetate] | high levels | partially effective | high levels |  | quite proficient |  | 

Source: publication PMC9557727, “How an assembly factor enhances covalent FAD attachment to the flavoprotein subunit of complex II” (The Journal of Biological Chemistry, 2022)
